Laboratory results taken from patent US9546164B2 (GENENTECH, INC., priority 2013, dated 2017).
Where a name gives a salt, the structure may show the parent alone.
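Note: Filter-bound radioactivity counted by liquid scintillation, nonspecific binding defined with excess unlabelled ligand, IC50 fitted to percent inhibition of specific binding.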

The compounds below were run against hNav1.7 (Homo sapiens (Human), UniProt Q15858) (assay: Tritiated sulfonamide competitive binding to membranes from cells expressing hNav1.7 and the β1 subunit). Conditions: not given.
Chain of hNav1.7 (Q15858 other isoform, or with tags, fused parts or gaps): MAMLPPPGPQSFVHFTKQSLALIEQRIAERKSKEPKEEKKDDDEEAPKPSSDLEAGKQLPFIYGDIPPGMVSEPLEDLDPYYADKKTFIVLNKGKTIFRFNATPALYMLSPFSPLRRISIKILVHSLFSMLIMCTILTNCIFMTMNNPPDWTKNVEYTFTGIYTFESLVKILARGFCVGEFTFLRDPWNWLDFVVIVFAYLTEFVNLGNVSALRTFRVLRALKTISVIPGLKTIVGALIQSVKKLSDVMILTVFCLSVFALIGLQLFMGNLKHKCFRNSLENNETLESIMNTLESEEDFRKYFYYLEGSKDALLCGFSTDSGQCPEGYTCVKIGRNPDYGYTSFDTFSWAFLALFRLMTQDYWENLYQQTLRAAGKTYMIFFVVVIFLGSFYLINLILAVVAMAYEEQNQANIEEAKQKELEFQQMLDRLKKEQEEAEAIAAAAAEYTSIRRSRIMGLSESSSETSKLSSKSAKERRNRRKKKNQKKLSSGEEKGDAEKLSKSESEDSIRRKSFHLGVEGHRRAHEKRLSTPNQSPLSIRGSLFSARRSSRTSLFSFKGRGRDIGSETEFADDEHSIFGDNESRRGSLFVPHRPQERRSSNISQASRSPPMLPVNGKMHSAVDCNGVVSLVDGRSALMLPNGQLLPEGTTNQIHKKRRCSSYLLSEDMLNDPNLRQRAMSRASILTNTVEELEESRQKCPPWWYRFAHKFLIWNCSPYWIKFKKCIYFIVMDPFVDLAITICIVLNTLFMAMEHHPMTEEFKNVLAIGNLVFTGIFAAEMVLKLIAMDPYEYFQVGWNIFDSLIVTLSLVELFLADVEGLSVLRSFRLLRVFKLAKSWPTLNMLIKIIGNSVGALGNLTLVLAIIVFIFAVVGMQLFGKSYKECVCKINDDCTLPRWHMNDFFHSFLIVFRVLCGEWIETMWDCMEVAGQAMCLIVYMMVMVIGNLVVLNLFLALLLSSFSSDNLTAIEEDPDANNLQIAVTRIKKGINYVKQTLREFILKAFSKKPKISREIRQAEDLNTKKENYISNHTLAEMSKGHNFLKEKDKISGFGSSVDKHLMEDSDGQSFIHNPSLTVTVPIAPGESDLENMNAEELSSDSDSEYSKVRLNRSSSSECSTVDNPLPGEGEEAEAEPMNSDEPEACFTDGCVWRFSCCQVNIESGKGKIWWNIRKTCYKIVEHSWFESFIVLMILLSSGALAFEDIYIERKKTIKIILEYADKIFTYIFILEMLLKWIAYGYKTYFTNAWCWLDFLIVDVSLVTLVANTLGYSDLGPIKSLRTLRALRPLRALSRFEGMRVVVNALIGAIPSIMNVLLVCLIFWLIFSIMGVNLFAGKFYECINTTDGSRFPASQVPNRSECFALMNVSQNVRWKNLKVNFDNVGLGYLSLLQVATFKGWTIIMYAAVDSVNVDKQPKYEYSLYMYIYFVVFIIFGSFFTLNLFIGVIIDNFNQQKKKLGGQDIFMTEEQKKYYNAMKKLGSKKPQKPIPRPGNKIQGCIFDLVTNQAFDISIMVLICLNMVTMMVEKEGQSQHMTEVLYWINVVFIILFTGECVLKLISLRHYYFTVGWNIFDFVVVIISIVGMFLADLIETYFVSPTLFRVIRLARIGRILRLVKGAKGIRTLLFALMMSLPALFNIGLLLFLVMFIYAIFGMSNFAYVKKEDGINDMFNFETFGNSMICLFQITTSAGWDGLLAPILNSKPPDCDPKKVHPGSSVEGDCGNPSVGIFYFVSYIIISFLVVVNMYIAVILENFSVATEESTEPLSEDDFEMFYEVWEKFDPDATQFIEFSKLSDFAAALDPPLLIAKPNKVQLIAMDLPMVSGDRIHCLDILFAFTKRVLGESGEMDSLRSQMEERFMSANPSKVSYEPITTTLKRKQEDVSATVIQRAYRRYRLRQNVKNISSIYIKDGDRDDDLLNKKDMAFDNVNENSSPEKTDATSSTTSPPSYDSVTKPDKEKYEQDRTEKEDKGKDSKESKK
Chain of hNav1.7 (Q07699 19-218 partner): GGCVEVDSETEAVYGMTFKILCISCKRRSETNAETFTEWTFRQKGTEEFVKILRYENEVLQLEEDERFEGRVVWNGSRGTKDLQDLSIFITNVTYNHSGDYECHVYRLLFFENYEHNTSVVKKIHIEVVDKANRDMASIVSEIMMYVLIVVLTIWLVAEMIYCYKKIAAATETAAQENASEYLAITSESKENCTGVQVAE
With `CS(=O)(=O)NC(=O)c1cc(C2CC2)c(O[C@@H]2CCCN(Cc3cccc(Cl)c3)C2)cc1F` [Example 26, (R)-4-((1-(3-chlorobenzyl)piperidin-3-yl)oxy)-5-cyclopropyl-2-fluoro-N-(methylsulfonyl)benzamide acid] the IC50 was 6.1 nM. Work on `CC(c1cc(Cl)cc(Cl)c1)N1CCN(Cc2cc(F)c(C(=O)NS(=O)(=O)C3CC3)cc2C2CC2)CC1` (stereo not shown) [Example 541, 5-cyclopropyl-N-(cyclopropylsulfonyl)-4-((4-(1-(3,5-dichlorophenyl)ethyl)piperazin-1-yl)methyl)-2-fluorobenzamide] yielded an IC50 of 5.9 nM. `O=C(NS(=O)(=O)C1CC1)c1cc(C2CC2)c(CN2CCC(Oc3cc(C(F)(F)F)cc(Cl)c3F)CC2)cc1F` [Example 537, 4-((4-(3-chloro-2-fluoro-5-(trifluoromethyl)phenoxy)piperidin-1-yl)methyl)-5-cyclopropyl-N-(cyclopropylsulfonyl)-2-fluorobenzamide, trifluoroacetic acid salt] gave an IC50 of 5.7 nM. Compound `CC(C)(C)N1CCC[C@@H](Oc2cc(F)c(C(=O)NS(C)(=O)=O)cc2C2CC2)C1` [Example 538, (R)-4-((1-(tert-butyl)piperidin-3-yl)oxy)-5-cyclopropyl-2-fluoro-N-(methylsulfonyl)benzamide] has an IC50 of 7120 nM.

Same assay, conditions: read-out: Ligand Binding Assay; 100 pM [3H]compound, membranes with hNav1.7 and β1 subunit, 18 h, room temperature
In the case of `CC(C)Oc1ncc(CN2CCC(COc3cc(F)c(C(=O)NS(C)(=O)=O)cc3C3CC3)CC2)cc1Cl` [Example 128, 4-((1-((5-Chloro-6-isopropoxypyridin-3-yl)methyl)piperidin-4-yl)methoxy)-5-cyclopropyl-2-fluoro-N-(methylsulfonyl)benzamide], the IC50 is reported as 5.6 nM. For `CS(=O)(=O)NC(=O)c1cc(C2CC2)c(OCC2CCN(Cc3cc(C(F)(F)F)cc(C4CC4)n3)CC2)cc1F` [Example 306, 5-cyclopropyl-4-((1-((6-cyclopropyl-4-(trifluoromethyl)pyridin-2-yl)methyl)piperidin-4-yl)methoxy)-2-fluoro-N-(methylsulfonyl)benzamide], the IC50 was 6 nM. `CC1(COc2cc(F)c(C(=O)NS(C)(=O)=O)cc2C2CC2)CCN(C(=O)c2cc(Cl)ccc2Cl)CC1` [Example 578, 5-cyclopropyl-4-((1-(2,5-dichlorobenzoyl)-4-methylpiperidin-4-yl)methoxy)-2-fluoro-N-(methylsulfonyl)benzamide] gave an IC50 of 180 nM. In the case of `O=C(NS(=O)(=O)C1CC1)c1cc(C2CC2)c(OCC2CCN(S(=O)(=O)C3COC3)CC2)cc1F` [Example 393, 5-cyclopropyl-N-(cyclopropylsulfonyl)-2-fluoro-4-((1-(oxetan-3-ylsulfonyl)piperidin-4-yl)methoxy)benzamide], the IC50 is reported as 1380 nM. Compound `O=C(NS(=O)(=O)C1CC1)c1cc(C2CC2)c(OCC2CCN(S(=O)(=O)c3cc(Cl)cc(Cl)c3)CC2)cc1F` [Example 275, 5-Cyclopropyl-N-(cyclopropylsulfonyl)-4-((1-((3,5-dichlorophenyl)sulfonyl)piperidin-4-yl)methoxy)-2-fluorobenzamide] has an IC50 of 6.9 nM. For `CS(=O)(=O)NC(=O)c1cc(C2CC2)c(OCC2CN(C(c3ccccc3)c3ccc(Cl)c(Cl)c3)C2)cc1F` (stereo not shown) [Example 80, 5-Cyclopropyl-4-((1-((3,4-dichlorophenyl)(phenyl)methyl)azetidin-3-yl)methoxy)-2-fluoro-N-(methylsulfonyl)benzamide], the IC50 was 4.05 nM. For `CS(=O)(=O)NC(=O)c1cc(C2CC2)c(OCC2CCN(c3cccc(Cl)c3)CC2)cc1F` [Example 294, 4-((1-(3-Chlorophenyl)piperidin-4-yl)methoxy)-5-cyclopropyl-2-fluoro-N-(methylsulfonyl)benzamide], the IC50 was 3.8 nM. Compound `O=C(NS(=O)(=O)C1CC1)c1cc(C2CC2)c(OC[C@H]2CCCN(Cc3ccc(F)cc3Cl)C2)cc1F` [Example 340, (S)-4-((1-(2-chloro-4-fluorobenzyl)piperidin-3-yl)methoxy)-5-cyclopropyl-N-(cyclopropylsulfonyl)-2-fluorobenzamide, trifluoroacetic acid salt] has an IC50 of 4.7 nM. `CCS(=O)(=O)NC(=O)c1cc(C2CC2)c(OCC2CCN(Cc3cc(C(F)(F)F)cc(C4CC4)n3)CC2)cc1F` [Example 307, 5-cyclopropyl-4-((1-((6-cyclopropyl-4-(trifluoromethyl)pyridin-2-yl)methyl)piperidin-4-yl)methoxy)-N-(ethylsulfonyl)-2-fluorobenzamide] showed an IC50 of 6.7 nM. `C[C@@H](c1cc(F)cc(Cl)c1)N1CCC(COc2cc(F)c(C(=O)NS(C)(=O)=O)cc2C2CC2)CC1` (single isomer, unassigned) [Example 231] gave an IC50 of 5.9 nM. `O=C(NS(=O)(=O)N1CCC1)c1cc(C2CC2)c(OCC2CCN(C(c3ccc(F)cc3)c3ccc(F)cc3)CC2)cc1F` [Example 419, N-azetidin-1-ylsulfonyl)-4-((1-(bis(4-fluorophenyl)methyl)piperidin-4-yl)methoxy)-5-cyclopropyl-2-fluorobenzamide, trifluoroacetic acid salt] showed an IC50 of 5.2 nM. `CS(=O)(=O)NC(=O)c1cc(C2CC2)c(OCC2CCN(c3cc(Cl)cc(Cl)c3)CC2)cc1F` [Example 292, 5-Cyclopropyl-4-((1-(3,5-dichlorophenyl)piperidin-4-yl)methoxy)-2-fluoro-N-(methylsulfonyl)benzamide] was tested, and the IC50 was 2.9 nM. Compound `CS(=O)(=O)NC(=O)c1cc(C2CC2)c(O[C@@H]2CCCN(Cc3ccc(-c4ccccc4)cc3)C2)cc1F` [Example 426, (R)-4-((1-([1,1′-biphenyl]-4-ylmethyl)piperidin-3-yl)oxy)-5-cyclopropyl-2-fluoro-N-(methylsulfonyl)benzamide, trifluoroacetic acid salt] has an IC50 of 3.1 nM. Work on `C[C@H](c1cc(F)cc(C(F)(F)F)c1)N1CCC(C)(COc2cc(F)c(C(=O)NS(C)(=O)=O)cc2C2CC2)CC1` [Example 170, (R)-5-cyclopropyl-2-fluoro-4-((1-(1-(3-fluoro-5-(trifluoromethyl)phenyl)ethyl)-4-methylpiperidin-4-yl)methoxy)-N-(methylsulfonyl)benzamide] yielded an IC50 of 5 nM. Compound `CS(=O)(=O)NC(=O)c1cc(C2CC2)c(OCC2CCN(c3ccccc3)CC2)cc1F` [Example 79, 5-cyclopropyl-2-fluoro-N-(methylsulfonyl)-4-((1-phenylpiperidin-4-yl)methoxy)benzamide] has an IC50 of 9.9 nM. Work on `C[C@H](c1cc(Cl)cc(Cl)c1)N1[C@@H]2CC[C@H]1C[C@H](COc1cc(F)c(C(=O)NS(C)(=O)=O)cc1C1CC1)C2` [Example 353, 5-cyclopropyl-4-(((1R,3S,5S)-8-((R)-1-(3,5-dichlorophenyl)ethyl)-8-azabicyclo[3.2.1]octan-3-yl)methoxy)-2-fluoro-N-(methylsulfonyl)benzamide, trifluoroacetic acid salt] yielded an IC50 of 11 nM. `COC[C@H](c1cccc(Cl)c1)N1CCC(COc2cc(F)c(C(=O)NS(C)(=O)=O)cc2C2CC2)CC1` (single isomer, unassigned) [Example 263] gave an IC50 of 20 nM. `CC1(COc2cc(F)c(C(=O)NS(C)(=O)=O)cc2C2CC2)CCN(Cc2cc(Cl)cc(Cl)c2)CC1` [Example 123, 5-cyclopropyl-4-((1-(3,5-dichlorobenzyl)-4-methylpiperidin-4-yl)methoxy)-2-fluoro-N-(methylsulfonyl)benzamide] gave an IC50 of 2.9 nM. Compound `CC(c1cc(Cl)cc(Cl)c1F)N1CCC(COc2cc(F)c(C(=O)NS(C)(=O)=O)cc2C2CC2)CC1` (stereo in doubt) [Example 236, (R)-5-cyclopropyl-4-((1-(1-(3,5-dichloro-2-fluorophenyl)ethyl)piperidin-4-yl)methoxy)-2-fluoro-N-(methylsulfonyl)benzamide] has an IC50 of 1.6 nM. In the case of `O=C(NS(=O)(=O)C1CC1)c1cc(C2CC2)c(OCC2CN(c3cc(C(F)(F)F)c(Cl)cn3)C2)cc1F` [Example 543, 4-((1-(5-chloro-4-(trifluoromethyl)pyridin-2-yl)azetidin-3-yl)methoxy)-5-cyclopropyl-N-(cyclopropylsulfonyl)-2-fluorobenzamide], the IC50 is reported as 11.7 nM. In the case of `CS(=O)(=O)NC(=O)c1cc(C2CC2)c(OCC2CN([C@@H](c3ccccc3)c3ccccc3Cl)C2)cc1F` [Example 150, (S)-4-((1-((2-Chlorophenyl)(phenyl)methyl)azetidin-3-yl)methoxy)-5-cyclopropyl-2-fluoro-N-(methylsulfonyl)benzamide], the IC50 is reported as 100 nM. `CS(=O)(=O)NC(=O)c1cc(C2CC2)c(OCC2CCN(Cc3ccc(C(F)(F)F)c(F)c3)CC2)cc1F` [Example 247, 5-cyclopropyl-2-fluoro-4-((1-(3-fluoro-4-(trifluoromethyl)benzyl)piperidin-4-yl)methoxy)-N-(methylsulfonyl)benzamide] gave an IC50 of 8.9 nM. `O=C(NS(=O)(=O)CC1CC1)c1cc(C2CC2)c(OCC2CN(C(c3ccccc3)c3ccccc3)C2)cc1F` [Example 64, 4-((1-benzhydrylazetidin-3-yl)methoxy)-5-cyclopropyl-N-((cyclopropylmethyl)-sulfonyl)-2-fluorobenzamide] gave an IC50 of 4.7 nM. Compound `COC[C@H](c1ccc(Cl)cc1Cl)N1CCC(COc2cc(F)c(C(=O)NS(C)(=O)=O)cc2C2CC2)CC1` [Example 282, (S)-5-cyclopropyl-4-((1-(1-(2,4-dichlorophenyl)-2-methoxyethyl)piperidin-4-yl)methoxy)-2-fluoro-N-(methylsulfonyl)benzamide] has an IC50 of 4.4 nM. In the case of `CS(=O)(=O)NC(=O)c1cc(C2CC2)c(OCC2CCN(Cc3cc(Cl)cc(C(F)(F)F)c3)CC2)cc1F` [Example 137, 4-((1-(3-Chloro-5-(trifluoromethyl)benzyl)piperidin-4-yl)methoxy)-5-cyclopropyl-2-fluoro-N-(methylsulfonyl)benzamide], the IC50 is reported as 2.05 nM. `CS(=O)(=O)NC(=O)c1cc(C2CC2)c(O[C@@H]2CCCN(Cc3ccccc3-c3ccccc3)C2)cc1F` [Example 442, (R)-4-((1-([1,1′-biphenyl]-2-ylmethyl)piperidin-3-yl)oxy)-5-cyclopropyl-2-fluoro-N-(methylsulfonyl)benzamide, trifluoroacetic acid salt] gave an IC50 of 3.1 nM. `O=C(NS(=O)(=O)C1CC1)c1cc(C2CC2)c(CN2CCO[C@H](Cc3ccc(F)cc3Cl)C2)cc1F` [Example 467, (R)-4-((2-(2-chloro-4-fluorobenzyl)morpholino)methyl)-5-cyclopropyl-N-(cyclopropylsulfonyl)-2-fluorobenzamide, trifluoroacetic acid salt] gave an IC50 of 4.3 nM.
